Data taken from patent US10835533B2, “1 -((3S,4R)-4-(3-fluorophenyl)-1-(2-methoxyethyl)pyrrolidin-3-yl)-3-(4-methyl-3-(2-methylpyrimidin-5-yl)-1-phenyl-1H-pyrazol-5-yl)urea as a TrkA kinase inhibitor” (Array BioPharma Inc., priority 2014, dated 2020).

Tests used:
[1] = biological target: T1, CHO-K1 cells transfected with human wild type TrkA (Homo sapiens, UniProt P04629); assay: TrkA Cell Assay, phospho-TrkA ELISA (Example B); assay type: cell-based; details: assay of Example B, 30 ng/mL human NGF, read-out: averaged IC50 value, phospho-TrkA
T1 construct: expressed in transfected cells; host or cells: CHO-K1
Protocol: CHO-K1 cells transfected with human wild type TrkA were plated in a 96-well flat-bottom plate at 3×10^5 cells/well in complete DMEM medium containing 10% FBS and allowed to attach for 24 hours at 37° C., 5% CO2. Medium was then replaced with complete serum free assay medium and the cells were serum starved for 1 hour at 37° C., 5% CO2. Cells were treated with Compound 1, 2 or 3 using 1:3 serial dilutions with final concentrations ranging from 1 μM to […]. The compound was incubated on cells for 1 hour at 37° C., 5% CO2. Cells were then stimulated with a final concentration of 30 ng/mL human NGF for 7 minutes at 37° C., 5% CO2. Medium was removed and cells were lysed with lysis buffer containing phosphatase and protease inhibitors. Phospho-TrkA was measured by ELISA (R&D Catalog No. DYC2578). The ELISA captured total TrkA and detected total phosphor-tyrosine. Optical density was measured for each well using a Versamax reader at a wave length of 450 nm. The IC50 values were determined by fitting a four parameter model to the percent of control data.

[2] = IV clearance, 1 mg/kg IV, monkey; assay type: in vivo; details: for in vivo/in vitro correction factor: microsomal CLh divided by IV CL; for clearance: plasma, 1 mg/kg IV
Protocol: In Table 1, the predicted human IV clearance values were calculated from compound concentration-versus-time data in plasma collected from pre-clinical species (mouse, rat, dog and monkey) following 1 mg/kg intravenous (IV) doses. Concentrations of compound in plasma were measured by LC-MS (liquid chromatography-mass spectrometry). AUCinf values (Area under the plasma concentration-time curve for a dosing interval from time 0 extrapolated to infinity) for individual Cp/t curves (concentration of the drug in plasma at any time t) were determined using linear-trapezoidal integration and first order extrapolation from terminal points of the Cp/t curves, and clearance (CL) was calculated using Dose/AUCinf.

[3] = Liver microsomal clearance, rat; assay type: in vitro ADME; details: pH 7.4; Rat liver microsomes; 1 mg/mL; 20 minutes
Protocol: (§1) The predicted hepatic clearance (CLh) value was calculated by scaling the in vitro half-life (t1/2) for stability of the compound in liver microsomes (1 mg/mL; 20 minutes) using the physical and physiological scaling factors used to predict intrinsic clearance (CLint) and hepatic clearance (CLhep) listed in Table 2 and employed in the following equations: […]
(§2) where D is the amount of cytochrome P450-related protein per mass of liver, W is the average mass of liver present per weight of animal, C is the liver microsomal concentration, and Q is the species-dependent hepatic blood flow.
(§3) A 100 mM potassium phosphate assay buffer solution (KPB) was prepared as follows. Both KH2PO4 and K2HPO4 were dissolved separately in reagent grade water resulting in final concentrations 100 mM. A 75:25 mixture v/v of K2HPO4:KH2PO4 was prepared and the pH of the solution was adjusted to 7.4 using diluted HCl or diluted NaOH solutions. Stock solutions of Compound 1, Compound 2 and Compound 3 were prepared at 10 mM (active compound) in DMSO. The stock solution was diluted immediately before use to 2.5 μM using the KPB solution to create the working standard. All test compounds were completely soluble in DMSO by visual inspection at room temperature. The NADPH-regenerating solution (NRS) was prepared on the day of analysis by diluting one volume of 17 mg/mL NADP^+ with one volume of 78 mg/mL glucose-6-phosphate (both prepared in KPB, pH 7.4) and 7.9 volumes of 20 mM MgCl2. The final concentrations of NADP^+ and glucose-6-phosphate were 1.7 mg/mL and 7.8 mg/mL, respectively. […]
(§4) All calculations were performed using BioAssay Enterprise. The mean peak area ratios were calculated by averaging the peak area ratios (n=2) of Compound 1, Compound 2, Compound 3, and the internal standard for each sample. Percent remaining was calculated by determining the ratio of the peak area ratio at each time point to the peak area ratio of the time-zero samples. The rate of loss of test compound (km) was determined by linear regression of −ln(f(t)) versus time. […] The t1/2 was determined dividing ln(2) by km. […]

[4] = Liver microsomal clearance, monkey; assay type: in vitro ADME; details: pH 7.4; Monkey liver microsomes; 1 mg/mL; 20 minutes
Protocol: as §1, §2, §3, §4

T1 sequence (P04629 33-796): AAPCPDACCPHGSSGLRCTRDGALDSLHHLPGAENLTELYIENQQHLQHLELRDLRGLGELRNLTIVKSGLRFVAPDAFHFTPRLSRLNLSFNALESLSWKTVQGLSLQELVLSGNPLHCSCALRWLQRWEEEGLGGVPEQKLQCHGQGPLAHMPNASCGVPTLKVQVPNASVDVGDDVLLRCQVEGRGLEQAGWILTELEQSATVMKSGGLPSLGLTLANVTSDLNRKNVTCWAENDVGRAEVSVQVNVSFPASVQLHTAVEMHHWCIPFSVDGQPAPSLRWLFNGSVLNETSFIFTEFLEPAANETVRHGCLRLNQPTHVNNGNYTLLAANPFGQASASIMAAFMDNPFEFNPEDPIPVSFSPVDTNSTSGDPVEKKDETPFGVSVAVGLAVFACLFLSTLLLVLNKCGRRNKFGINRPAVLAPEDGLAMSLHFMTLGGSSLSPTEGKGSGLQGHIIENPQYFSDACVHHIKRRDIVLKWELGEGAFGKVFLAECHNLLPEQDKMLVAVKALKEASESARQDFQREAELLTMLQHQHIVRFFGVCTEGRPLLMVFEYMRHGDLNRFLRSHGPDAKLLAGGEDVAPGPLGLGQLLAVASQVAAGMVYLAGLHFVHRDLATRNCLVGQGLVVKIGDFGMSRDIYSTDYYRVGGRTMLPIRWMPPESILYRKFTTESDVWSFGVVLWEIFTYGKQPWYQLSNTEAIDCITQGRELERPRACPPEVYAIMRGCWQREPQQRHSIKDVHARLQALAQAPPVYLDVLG

IC50 [1]	in vivo/in vitro correction factor [2]	clearance [2]	CLhep predicted at 1 μM [3]	CLhep predicted at 1 μM [4]	SMILES
1.9 nM	1.65	20 mL/min/kg	22 mL/min/kg	33 mL/min/kg	COCCN1C[C@@H](NC(=O)Nc2c(C)c(-c3cnc(C)nc3)nn2-c2ccccc2)[C@H](c2cccc(F)c2)C1 [Compound 1, 1-((3S,4R)-4-(3-fluorophenyl)-1-(2-methoxyethyl)pyrrolidin-3-yl)-3-(4-methyl-3-(2-methylpyrimidin-5-yl)-1-phenyl-1H-pyrazol-5-yl)urea]
1.3 nM	2.11	18 mL/min/kg	22 mL/min/kg	38 mL/min/kg	COCCN1C[C@@H](NC(=O)Nc2c(C)c(-c3cnc(C)nc3)nn2-c2ccccc2)[C@H](c2ccc(F)c(F)c2)C1 [Compound 2, 1-((3S,4R)-4-(3,4-difluorophenyl)-1-(2-methoxyethyl)pyrrolidin-3-yl)-3-(4-methyl-3-(2-methylpyrimidin-5-yl)-1-phenyl-1H-pyrazol-5-yl)urea]
6.1 nM	0.84	38 mL/min/kg	23 mL/min/kg	32 mL/min/kg	COCCN1C[C@@H](NC(=O)Nc2c(C)c(-c3cnn(C)c3)nn2-c2ccccc2)[C@H](c2ccc(F)cc2)C1 [Compound 3, 1-(1′,4-dimethyl-1-phenyl-1H,1′H-[3,4′-bipyrazol]-5-yl)-3-((3S,4R)-4-(4-fluorophenyl)-1-(2-methoxyethyl)pyrrolidin-3-yl)urea]
